The values below come from patent publication US9199993B2, “8-azabicyclo[3.2.1]octyl-2-hydroxybenzamide compounds as mu opioid receptor antagonists” (THERAVANCE BIOPHARMA R&D IP, LLC, priority 2007, dated 2015).

Where two headings read alike, the source gives them in different places.

Experiment [1] concerns the target T1, human mu opioid receptor (Homo sapiens, UniProt P35372).
T1 construct: host or cells: CHO-K1
As to the kind of experiment: Radioligand binding assay on human mu opioid receptor.

Experiment [2] deals with loperamide-induced delayed gastric emptying. Put plainly: Rat gastric emptying assay (reversal of loperamide-induced delayed gastric emptying). It counts as in vivo. The following applies: administered orally, loperamide 1 mg/kg s.c., gastric emptying model.
Experiment [3] has as its target T1, human mu opioid receptor. Put plainly: biochemical. The following applies: read-out: intrinsic activity (IA), bound [35S]GTPγS relative to DAMGO (IA=100).

T1 sequence (P35372 whole entry): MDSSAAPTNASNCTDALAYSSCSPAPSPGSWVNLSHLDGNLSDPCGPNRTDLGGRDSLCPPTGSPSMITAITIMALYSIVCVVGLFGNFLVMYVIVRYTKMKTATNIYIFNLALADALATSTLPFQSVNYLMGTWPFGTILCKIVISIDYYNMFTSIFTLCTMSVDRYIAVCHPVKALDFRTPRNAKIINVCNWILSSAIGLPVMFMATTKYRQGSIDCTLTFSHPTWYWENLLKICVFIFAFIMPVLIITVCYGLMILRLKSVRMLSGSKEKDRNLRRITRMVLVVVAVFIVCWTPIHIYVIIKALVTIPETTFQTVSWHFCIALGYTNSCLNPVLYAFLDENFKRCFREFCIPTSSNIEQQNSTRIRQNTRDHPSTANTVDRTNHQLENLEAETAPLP

At human mu opioid receptor [1], `CCC(CC)CN(CCN1[C@@H]2CC[C@H]1C[C@@H](c1cccc(C(N)=O)c1O)C2)C(=O)[C@@H](O)CO` [Example 1, 3-endo-(8-{2-[((S)-2,3-Dihydroxypropionyl)-(2-ethylbutyl)-amino]ethyl}-8-azabicyclo[3.2.1]oct-3-yl)-2-hydroxybenzamide] registered a Ki of 0.1 nM. In addition, the “ID50, dose required for 50% reversal of the effects of loperamide” value (from here on “ID50, dose required for 50% reversal”) in experiment [2] was 0.11 mg/kg. Further, the Emax at human mu opioid receptor [3] was -1%.

Take `CCC(CC)CN(CCN1[C@@H]2CC[C@H]1C[C@@H](c1cccc(C(N)=O)c1O)C2)C(=O)CO` [Example 2, 3-endo-(8-2-[(2-Ethylbutyl)-(2-hydroxyacetyl)amino]-ethyl-8-azabicyclo[3.2.1]oct-3-yl)-2-hydroxybenzamide]: the Ki on human mu opioid receptor [1] (displacement of [3H]-Diprenorphine 0.5 nM, CHO-K1 cell membranes, read-out: pKi at the human mu opioid receptor (converted)) was 0.1 nM.

With `NC(=O)c1cccc(C2CC3CCC(C2)N3CCN(CC2CCC(F)(F)CC2)C(=O)CO)c1O` (stereo not drawn) [Example 4, 3-endo-(8-2-[(4,4-Difluorocyclohexylmethyl)-(2-hydroxyacetyl)-amino]ethyl-8-azabicyclo[3.2.1]oct-3-yl)-2-hydroxybenzamide], the “ID50, dose required for 50% reversal” value in experiment [2] worked out at 0.014 mg/kg.

For `CC(C)(C)CN(CCN1[C@@H]2CC[C@H]1C[C@@H](c1cccc(C(N)=O)c1O)C2)C(=O)[C@@H](O)CO` [Example 6, 3-endo-(8-{2-[((S)-2,3-Dihydroxypropionyl)-(2,2-dimethylpropyl)amino]ethyl}-8-azabicyclo[3.2.1]oct-3-yl)-2-hydroxybenzamide], on human mu opioid receptor [1], the Ki was 0.251 nM. Also, the “ID50, dose required for 50% reversal” value in experiment [2] is 0.42 mg/kg. Further, the Emax at human mu opioid receptor [3] was 9%.
